According to publication PMC7600788, “Sequence Permutation Generates Peptides with Different Antimicrobial and Antibiofilm Activities” (Pharmaceuticals, 2020):
Read-outs that look alike come from different tables or passages of the source. No end group written: not given here.

Experiments:
Pig RBC = assay: Hemolytic assay; type: cell-based
Description: (§1) Hemolytic assays of peptides were performed as previously described. Briefly, human red blood cells (hRBCs) obtained from UNMC Blood Bank, or chicken or porcine blood cells purchased from commercial sources as previously described, were washed three times with phosphate buffer saline (PBS) and diluted to a 2% solution (V/v). After peptide treatment, incubation at 37 °C for one hour, and centrifugation at 13,000 rpm, aliquots of the supernatant were carefully transferred to a fresh 96-well microplate. The amount of hemoglobin released was measured at 545 nm. The percent lysis was calculated by assuming 100% release when human blood cells were treated with 2% Triton X-100, and 0% release when incubated with PBS buffer. The peptide concentration that caused 50% lysis of hRBCs is defined as HC50.

chicken red blood cells = assay: Hemolytic assay; type: cell-based
Description: as §1

human red blood cells = assay: Hemolytic assay; type: cell-based
Description: as §1

E. coli ATCC 25922 = type: cell-based, Escherichia coli
Description: (§2) To gain additional insight, we also compared the effects of physiological saline and human serum on the antibacterial activities of WW291-WW298 using both E. coli and S. aureus (Table 3). In our assays, salts and serum were present during the entire course of the experiment. […] Thus, WW295 and WW298 stand out in terms of activity robustness (bold in Table 3).
(§3) The antibacterial activity of peptides was evaluated using a standard broth microdilution protocol with minor modifications as previously described. In brief, logarithmic phase bacterial cultures (i.e., optical density at 600 nm ≈ 0.5) were diluted to OD600~0.001 and partitioned into a 96-well polystyrene microplate at 90 μL per well. After treatment with 10 μL of peptide solutions two-fold diluted to various concentrations, microplates were incubated at 37 °C overnight and read on a ChroMate 4300 Microplate Reader at 630 nm (GMI, Ramsey, MN). […] Minimal bactericidal concentration (MBC) was determined by plating the clear wells at MIC or above. The peptide concentration that caused no bacterial growth on the petri dish is MBC.

S. aureus USA300 LAC = type: cell-based, Staphylococcus aureus
Description: as §2, §3

S. aureus Mu50 = type: cell-based, Staphylococcus aureus
Description: (§4) The antimicrobial activity spectrum of the WW peptide series was performed on a panel of Gram-positive and -negative bacteria using the standard broth micro-dilution method with minor modifications as described. […] There was a small change in the case of Pseudomonas aeruginosa and Acinetobacter baumannii up to two-fold. Four-fold changes were found for Staphylococcus aureus, Staphylococcus epidermidis, Escherichia coli, and Bacillus subtilis. However, we observed over eight-fold MIC changes for Klebsiella pneumoniae and vancomycin-resistant enterococcus (VRE). […] We also observed more than eight-fold changes in minimal bacterial killing concentrations.
as §3

E. faecium VRE = type: cell-based
Description: as §4, §3

[1] = system: PMA differentiated THP-1 cells; assay: MTS cytotoxicity assay; type: cell-based; details: PMA differentiated THP-1, serum free media, one hour treatment
Description: (§5) Peptides were assayed for potential in vitro toxicity against human keratinocytes (HaCaT) and THP-1 cells as previously described. THP-1 monocytes were differentiated into macrophages by adding 30 ng/mL of phorbol 12-myristate 13-acetate (PMA; Sigma-Aldrich) to RPMI 1640 supplemented with 10% fetal calf serum culture (FCS) medium for 16 h. Briefly, cells were seeded at a density of 3 × 10^4 per well in a tissue culture 96-well plate in DMEM/RPMI supplemented with 10% fetal bovine serum (FBS), and incubated at 37 °C in a 5% CO2 atmosphere for 24 h. African green monkey kidney Vero E6 cells were cultivated in EMEM in the same manner. Before antimicrobial treatment, wells were replaced with serum free media and treated with peptides at different concentrations for one hour. After incubation, the cells were washed and incubated with 100 μL of DMEM media containing 20 μL of 3-(4,5-dimethylthiazol-2-yl)-5-(3-carboxymethoxyphenyl)-2-(4-sulfophenyl)-2H-tetrazolium (MTS) reagent for two hours at 37 °C. The treatment time was one hour in the case of Vero E6 cells. Absorbance readings at 492 nm were taken using a ChroMate microplate reader (GMI, Ramsey, MN, USA).

[2] = system: human keratinocytes (HaCaT); assay: MTS cytotoxicity assay; type: cell-based; details: serum free media, one hour treatment
Description: as §5

B. subtilis 167 = type: cell-based, Bacillus subtilis
Description: as §4, §3

E. coli K12 = type: cell-based, Escherichia coli
Description: as §4, §3

[3] = system: monkey kidney Vero E6 cells; type: cell-based
Description: as §5, with “The treatment time was one hour in the case of Vero E6 cells.” left out

A. baumannii B28-16 = type: cell-based, Acinetobacter baumannii
Description: as §4, §3

S. aureus USA300 = type: cell-based, Staphylococcus aureus
Description: as §3

P. aeruginosa PAO1 = type: cell-based, Pseudomonas aeruginosa
Description: as §4, §3

[4] = 2% RBC in PBS, 37 °C, one hour, hemoglobin at 545 nm

Row | Sequence | Pig RBC, concentration that caused 50% red blood cell lysis (HC50) (Pig RBC) [µM] | Chicken RBC, concentration that caused 50% red blood cell lysis (HC50) (chicken red blood cells) [µM] | Human RBC, concentration that caused 50% red blood cell lysis (HC50) (human red blood cells; red cells of human) [µM] | MIC, +150 mM NaCl (E. coli ATCC 25922; ATCC 25922) [µM] | MIC, +10% Human Serum (E. coli ATCC 25922; ATCC 25922) [µM] | MIC, TSB (E. coli ATCC 25922; ATCC 25922) [µM] | MIC, +150 mM NaCl (S. aureus USA300 LAC; USA300) [µM] | MIC, +10% Human Serum (S. aureus USA300 LAC; USA300) [µM] | MIC, TSB (S. aureus USA300 LAC; USA300) [µM] | Minimal Inhibitory Concentration (MIC), SA (S. aureus Mu50; Mu50) [µM] | Minimal Inhibitory Concentration (MIC), VRE (E. faecium VRE; VRE) [µM] | THP-1, concentration that caused 50% cell death (LC50) [1] [µM] | HaCaT, concentration that caused 50% cell death (LC50) [2] [µM] | Minimal Inhibitory Concentration (MIC), BS (B. subtilis 167; 167) [µM] | Minimal Inhibitory Concentration (MIC), EC (E. coli K12; K12) [µM] | Vero Cells, concentration that caused 50% cell death (LC50) [3] [µM] | Minimal Inhibitory Concentration (MIC), AB (A. baumannii B28-16; B28-16) [µM] | MBC, USA300 (S. aureus USA300; USA300) [µM] | Minimal Inhibitory Concentration (MIC), PA (P. aeruginosa PAO1; PAO1) [µM] | also measured
1 | WLRKIWWW [WW293] | >100 | >100 | 224 | >25 | >25 | 12.5 | 6.2 | >25 | 6.2 | 12.5 | 50 | >100 | >100 | 12.5 | 12.5 to 25 | >100 | 12.5 | 25 | 50 | –
2 | WWLRKIWW [WW292] | >100 | >100 | 175 | >25 | >25 | 12.5 | 6.2 | >25 | 6.2 | 12.5 | >50 | >100 | >100 | 12.5 | 25 | >100 | 12.5 | >25 | 25 | –
3 | LRKIWWWW [WW294] | >100 | >100 | 143 | 25 | >25 | 12.5 | 6.2 | 25 | 6.2 | 12.5 | 25 | >100 | >100 | 25 | 12.5 | >100 | 12.5 | 25 | 50 | –
4 | IWWWWLRK [WW297] | – | – | – | – | – | – | – | – | – | – | – | 38 | 100 | – | – | – | – | – | – | Pig RBC, concentration that caused 50% red blood cell lysis (HC50) (Pig RBC; [4]): 110 µM; Chicken RBC, concentration that caused 50% red blood cell lysis (HC50) (chicken red blood cells; [4]): 100 µM; Human RBC, concentration that caused 50% red blood cell lysis (HC50) (human red blood cells; [4]): 134 µM; MIC, TSB (E. coli ATCC 25922; E. coli ATCC 25922, TSB): 12.5 µM; MIC, +150 mM NaCl (E. coli ATCC 25922; E. coli ATCC 25922, TSB +150 mM NaCl, present during entire experiment): 12.5 µM; MIC, +10% Human Serum (E. coli ATCC 25922; E. coli ATCC 25922, TSB +10% human serum, present during entire experiment): >25 µM; MIC, TSB (S. aureus USA300 LAC; S. aureus USA300 LAC, TSB): 3.1 µM; MIC, +150 mM NaCl (S. aureus USA300 LAC; S. aureus USA300 LAC, TSB +150 mM NaCl, present during entire experiment): 3.1 µM; MIC, +10% Human Serum (S. aureus USA300 LAC; S. aureus USA300 LAC, TSB +10% human serum, present during entire experiment): 25 µM; Minimal Inhibitory Concentration (MIC), SA (S. aureus Mu50; S. aureus Mu50, broth microdilution, 37 °C overnight): 6.2 µM; Minimal Inhibitory Concentration (MIC), VRE (E. faecium VRE; E. faecium VRE, broth microdilution, 37 °C overnight): 12.5 µM; Minimal Inhibitory Concentration (MIC), BS (B. subtilis 167; B. subtilis 167, broth microdilution, 37 °C overnight): 12.5 µM; Minimal Inhibitory Concentration (MIC), EC (E. coli K12; E. coli K12, broth microdilution, 37 °C overnight): 12.5 to 25 µM; Vero Cells, concentration that caused 50% cell death (LC50) ([3]; Vero E6, serum free media, one hour treatment, MTS assay): >100 µM; Minimal Inhibitory Concentration (MIC), AB (A. baumannii B28-16; A. baumannii B28-16, broth microdilution, 37 °C overnight): 6.25 to 12.5 µM; MBC, USA300 (S. aureus USA300; S. aureus USA300, minimal bactericidal concentration, plating clear wells at MIC or above): 12.5 µM; Minimal Inhibitory Concentration (MIC), PA (P. aeruginosa PAO1; P. aeruginosa PAO1, broth microdilution, 37 °C overnight): 50 µM
5 | KIWWWWLR [WW296] | >100 | 50 | 103 | 25 | >25 | 3.1 to 6.2 | 1.6 | – | 1.6 | 3.1 | 25 | 35 | 100 | 12.5 | 6.2 to 12.5 | >100 | 12.5 | 6.2 | 50 | –
6 | WWWWLRKI [WW298] | 37 | 70 | 52 | 12.5 | >25 | 12.5 | 1.6 | 12.5 to 25 | 1.6 | 3.1 | 12.5 | 30 | 80 | 6.25 to 12.5 | 12.5 | 100 | 6.25 to 12.5 | 3.1 | 50 | –
